Laboratory results as given in patent US12365674B2, “Inhibitors of histone deacetylase useful for the treatment or prevention of HIV infection” (Merck Sharp & Dohme LLC, priority 2019, dated 2025).

Legend:
Assay type in all cases: biochemical
[1] = biological target: T1, human HDAC3/SMRT heterodimer (Homo sapiens, UniProt O15379); assay: Human HDAC enzyme inhibitor Fluor-de-Lys assay, HDAC3/SMRT; settings: HDAC3/SMRT 0.3 nM enzyme, 20 μM substrate BML-KI104, 10 μM IP4, 3 h pre-incubation, 60 min reaction; read-out: HDAC3_IC50
T1 construct: Full length human HDAC3-FLAG was expressed in HEK-293F cells along with SMRT; host or cells: HEK-293F cells
Description: (§1) Recombinant human HDAC8 (catalog number BML-SE145-0100) and HDAC10 (catalog number BML-SE559-0050) enzymes, HDAC substrates BML-KI104 and BML-KI178, and HDAC developer solutions BML-KI105 and BML-KI176 were purchased from Enzo Life Sciences (Farmingdale, NY). Recombinant human HDAC5 and HDAC11 were purchased from BPS Bioscience (San Diego, CA)(catalog numbers 50045 and 50021). Substrate Boc-Lys(TFA)-AMC was obtained from Bachem (Bupendorf, Switzerland) (catalog number 1-1985). HDAC inhibitor suberoylanilide hydroxamic acid (SAHA) was obtained from Indofine (Hillsborough Township, NJ) and trichostatin A (TSA) was obtained from Sigma-Aldrich (St. Louis, MO). […] HEPES pH 8.0 was obtained from Boston BioProducts (Ashland, MA), Tween-20 from Fisher Scientific (Hampton, NH)(catalog number BP337), TCEP from Calbiochem and 7.5% bovine serum albumin (BSA) from Life Technologies (Carlsbad, CA) (catalog number 15260037). 384-well, black assay plates were obtained from Corning (Corning, NY) (catalog number 3575).
(§2) Recombinant human HDAC1, HDAC2, and HDAC3/SMRT heterodimer were prepared by Merck Research Laboratories. […] The eluted protein was then passed over an anti-HDAC1 immunoaffinity column to remove any complexes containing HDAC1. […]
(§3) The histone deacetylase activities of HDAC1, HDAC2, HDAC3, HDAC6, and HDAC8 were measured in modified Fluor-de-Lys assays in 384-well format. In this assay, HDAC enzymes are initially incubated with an ε-acetyl (or -trifluoroacetyl)-L-lysine-containing substrate with a C-terminal amide having aminomethylcoumarin as the amine component. HDACs cleave the ε-acetyl group, rendering the resulting product susceptible to AMC cleavage by trypsin. The released AMC is then detected by its fluorescence.
(§4) The HDAC 1, 2 assays employed buffer A, which contained 20 mM HEPES, pH 8.0, 1 mM MgCl2, 137 mM NaCl, 2.7 mM KCl, 0.05% BSA. The HDAC3/SMRT assay employed buffer B, consisting of 20 mM HEPES, pH 8.0, 1 mM MgCl2, 50 mM NaCl, 2.7 mM KCl, 0.05% BSA, 0.005% Tween 20, and 10 μM IP4. The HDAC6 assay employed buffer C, consisting of 20 mM HEPES, pH 8.0, 1 mM MgCl2, 137 mM NaCl, 2.7 mM KCl, 0.5 mM TCEP (Calbiochem) and 0.05% BSA. The HDAC8 assay employed buffer D, consisting of 20 mM HEPES, pH 8.0, 1 mM MgCl2, 100 mM NaCl, 20 mM KCl, 0.1% n-octyl-β-D-glucoside (Anatrace, Maumee, OH) and 0.05% BSA. All steps were performed at room temperature (23° C.). The assay was performed by pre-incubating serial dilutions of test compounds with the target HDAC prior to initiation with substrate. Each compound was titrated in a 10-point dose response, using a 1:3 fold dilution scheme, with 0.15 ul of solution added by ECHO555 to the plate, followed by the addition of 20 μl of the appropriate HDAC isoform diluted in appropriate assay buffer. […] Final conditions used for each assay were: 1. HDAC 1, 0.3 nM total enzyme, 20 μM substrate BML-K1104; 2. HDAC 2, 1.5 nM total enzyme, 40 μM substrate BML-K1104; 3. HDAC 3/SMRT, 0.3 nM total enzyme, 20 μM substrate BML-K1104; 4. HDAC 6, 1.3 nM total enzyme, 2.5 μM substrate BML-K1104; 5. HDAC 8, 1.3 nM total enzyme, 200 μM substrate BML-K1178; the final high dose of test compound was 30 μM. […] The reactions were stopped and developed by addition of 30 ul of HDAC developer solution containing a saturating level of HDAC inhibitor as follows: 1.

[2] = biological target: T2, human HDAC2 (Homo sapiens, UniProt Q92769); assay: Human HDAC enzyme inhibitor Fluor-de-Lys assay, HDAC2; settings: 1.5 nM enzyme, 40 μM substrate BML-KI104, 3 h pre-incubation, 60 min reaction; read-out: HDAC2_IC50
T2 construct: Full length human HDAC2-FLAG was expressed in baculovirus infected Sf9 cells; host or cells: baculovirus infected Sf9 cells
Description: as §1, §2, §3, §4

[3] = biological target: T3, HDAC6 (Homo sapiens, UniProt Q9UBN7); assay: Human HDAC enzyme inhibitor Fluor-de-Lys assay, HDAC6; settings: 1.3 nM enzyme, 2.5 μM substrate BML-KI104, 3 h pre-incubation, 60 min reaction; read-out: HDAC6_IC50
T3 sequence (Q9UBN7 1-1215): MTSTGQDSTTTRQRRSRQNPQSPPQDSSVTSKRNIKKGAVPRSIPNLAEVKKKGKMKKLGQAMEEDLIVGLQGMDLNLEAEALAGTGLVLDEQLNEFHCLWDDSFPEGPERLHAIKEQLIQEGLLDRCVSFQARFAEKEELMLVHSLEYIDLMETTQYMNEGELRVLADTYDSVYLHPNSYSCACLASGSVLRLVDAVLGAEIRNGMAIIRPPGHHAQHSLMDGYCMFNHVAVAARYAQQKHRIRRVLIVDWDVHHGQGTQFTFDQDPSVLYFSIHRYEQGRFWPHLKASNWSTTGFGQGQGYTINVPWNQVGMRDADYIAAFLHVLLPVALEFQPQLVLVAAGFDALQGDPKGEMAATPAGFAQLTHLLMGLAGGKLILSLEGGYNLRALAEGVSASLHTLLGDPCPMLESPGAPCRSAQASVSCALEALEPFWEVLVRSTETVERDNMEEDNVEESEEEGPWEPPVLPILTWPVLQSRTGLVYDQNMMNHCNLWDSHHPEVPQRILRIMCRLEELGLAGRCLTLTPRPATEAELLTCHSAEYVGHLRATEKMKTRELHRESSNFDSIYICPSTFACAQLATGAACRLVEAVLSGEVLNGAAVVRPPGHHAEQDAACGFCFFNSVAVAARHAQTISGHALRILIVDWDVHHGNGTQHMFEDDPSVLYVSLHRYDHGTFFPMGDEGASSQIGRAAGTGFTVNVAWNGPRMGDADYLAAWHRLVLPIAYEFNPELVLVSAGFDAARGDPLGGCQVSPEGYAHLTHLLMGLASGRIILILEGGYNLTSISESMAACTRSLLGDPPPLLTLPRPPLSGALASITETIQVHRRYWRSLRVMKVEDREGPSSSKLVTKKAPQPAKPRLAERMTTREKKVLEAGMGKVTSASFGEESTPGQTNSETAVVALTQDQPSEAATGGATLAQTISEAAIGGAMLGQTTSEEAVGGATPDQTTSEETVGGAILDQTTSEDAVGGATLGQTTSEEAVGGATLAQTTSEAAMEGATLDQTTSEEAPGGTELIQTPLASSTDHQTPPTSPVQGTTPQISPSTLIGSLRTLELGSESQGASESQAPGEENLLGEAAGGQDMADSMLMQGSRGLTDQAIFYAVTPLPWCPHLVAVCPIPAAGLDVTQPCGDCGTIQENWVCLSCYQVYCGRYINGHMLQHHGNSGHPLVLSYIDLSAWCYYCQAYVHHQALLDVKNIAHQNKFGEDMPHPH
Description: as §1, §3
(§5) The HDAC 1, 2 assays employed buffer A, which contained 20 mM HEPES, pH 8.0, 1 mM MgCl2, 137 mM NaCl, 2.7 mM KCl, 0.05% BSA. The HDAC3/SMRT assay employed buffer B, consisting of 20 mM HEPES, pH 8.0, 1 mM MgCl2, 50 mM NaCl, 2.7 mM KCl, 0.05% BSA, 0.005% Tween 20, and 10 μM IP4. The HDAC6 assay employed buffer C, consisting of 20 mM HEPES, pH 8.0, 1 mM MgCl2, 137 mM NaCl, 2.7 mM KCl, 0.5 mM TCEP (Calbiochem) and 0.05% BSA. The HDAC8 assay employed buffer D, consisting of 20 mM HEPES, pH 8.0, 1 mM MgCl2, 100 mM NaCl, 20 mM KCl, 0.1% n-octyl-β-D-glucoside (Anatrace, Maumee, OH) and 0.05% BSA. All steps were performed at room temperature (23° C.). The assay was performed by pre-incubating serial dilutions of test compounds with the target HDAC prior to initiation with substrate. Each compound was titrated in a 10-point dose response, using a 1:3 fold dilution scheme, with 0.15 ul of solution added by ECHO555 to the plate, followed by the addition of 20 μl of the appropriate HDAC isoform diluted in appropriate assay buffer. […] Final conditions used for each assay were: 1. HDAC 1, 0.3 nM total enzyme, 20 μM substrate BML-K1104; 2. HDAC 2, 1.5 nM total enzyme, 40 μM substrate BML-K1104; 3. HDAC 3/SMRT, 0.3 nM total enzyme, 20 μM substrate BML-K1104; 4. HDAC 6, 1.3 nM total enzyme, 2.5 μM substrate BML-K1104; 5. HDAC 8, 1.3 nM total enzyme, 200 μM substrate BML-K1178; the final high dose of test compound was 30 μM. For potent compounds, 900 nM was used as the final high dose. The reactions were stopped and developed by addition of 30 ul of HDAC developer solution containing a saturating level of HDAC inhibitor as follows: 1.

[4] = biological target: T4, human HDAC8 (Homo sapiens, UniProt Q9BY41); assay: Human HDAC enzyme inhibitor Fluor-de-Lys assay, HDAC8; settings: 1.3 nM enzyme, 200 μM substrate BML-KI178, 3 h pre-incubation, 60 min reaction; read-out: HDAC8_IC50
T4 construct: purchased Enzo Life Sciences BML-SE145-0100
T4 sequence (Q9BY41 1-377): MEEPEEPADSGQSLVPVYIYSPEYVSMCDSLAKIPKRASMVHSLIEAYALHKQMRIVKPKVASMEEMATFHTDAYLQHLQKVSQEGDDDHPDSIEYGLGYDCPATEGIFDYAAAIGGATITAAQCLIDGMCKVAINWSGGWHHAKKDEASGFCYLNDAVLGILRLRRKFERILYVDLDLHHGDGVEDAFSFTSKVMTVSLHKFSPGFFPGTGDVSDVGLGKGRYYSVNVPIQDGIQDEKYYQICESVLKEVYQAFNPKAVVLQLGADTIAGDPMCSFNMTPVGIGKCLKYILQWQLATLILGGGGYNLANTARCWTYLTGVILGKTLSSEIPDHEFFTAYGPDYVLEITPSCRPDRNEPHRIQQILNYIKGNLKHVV
Description: as §1, §3, §5

T2 sequence (Q92769 whole entry): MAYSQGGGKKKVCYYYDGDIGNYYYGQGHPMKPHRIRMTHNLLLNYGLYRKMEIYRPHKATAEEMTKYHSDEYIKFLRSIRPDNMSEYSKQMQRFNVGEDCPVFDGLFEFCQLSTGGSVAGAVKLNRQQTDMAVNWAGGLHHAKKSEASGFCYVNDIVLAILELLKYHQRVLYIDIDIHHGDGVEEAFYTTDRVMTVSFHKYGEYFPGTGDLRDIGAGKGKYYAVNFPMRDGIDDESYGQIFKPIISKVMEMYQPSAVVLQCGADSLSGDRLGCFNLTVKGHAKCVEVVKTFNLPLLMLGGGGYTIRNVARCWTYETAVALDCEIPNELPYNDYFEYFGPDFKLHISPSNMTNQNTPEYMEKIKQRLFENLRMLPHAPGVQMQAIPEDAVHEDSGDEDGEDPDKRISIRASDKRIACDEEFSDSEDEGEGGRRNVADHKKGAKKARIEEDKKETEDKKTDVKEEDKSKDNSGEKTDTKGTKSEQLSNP
T1 sequence (O15379 whole entry): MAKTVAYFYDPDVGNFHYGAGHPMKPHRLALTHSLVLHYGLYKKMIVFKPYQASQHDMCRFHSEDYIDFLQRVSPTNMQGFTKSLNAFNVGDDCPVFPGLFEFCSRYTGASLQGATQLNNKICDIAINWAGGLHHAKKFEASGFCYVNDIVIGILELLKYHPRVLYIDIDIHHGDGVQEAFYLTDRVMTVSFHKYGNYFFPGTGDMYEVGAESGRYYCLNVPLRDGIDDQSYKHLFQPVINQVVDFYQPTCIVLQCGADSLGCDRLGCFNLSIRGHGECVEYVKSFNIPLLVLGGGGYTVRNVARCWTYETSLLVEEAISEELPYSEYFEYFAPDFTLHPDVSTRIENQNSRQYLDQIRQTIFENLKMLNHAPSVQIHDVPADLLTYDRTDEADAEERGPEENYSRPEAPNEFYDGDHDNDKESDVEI
T1 sequence (Q9Y618 1-899 partner limits assumed): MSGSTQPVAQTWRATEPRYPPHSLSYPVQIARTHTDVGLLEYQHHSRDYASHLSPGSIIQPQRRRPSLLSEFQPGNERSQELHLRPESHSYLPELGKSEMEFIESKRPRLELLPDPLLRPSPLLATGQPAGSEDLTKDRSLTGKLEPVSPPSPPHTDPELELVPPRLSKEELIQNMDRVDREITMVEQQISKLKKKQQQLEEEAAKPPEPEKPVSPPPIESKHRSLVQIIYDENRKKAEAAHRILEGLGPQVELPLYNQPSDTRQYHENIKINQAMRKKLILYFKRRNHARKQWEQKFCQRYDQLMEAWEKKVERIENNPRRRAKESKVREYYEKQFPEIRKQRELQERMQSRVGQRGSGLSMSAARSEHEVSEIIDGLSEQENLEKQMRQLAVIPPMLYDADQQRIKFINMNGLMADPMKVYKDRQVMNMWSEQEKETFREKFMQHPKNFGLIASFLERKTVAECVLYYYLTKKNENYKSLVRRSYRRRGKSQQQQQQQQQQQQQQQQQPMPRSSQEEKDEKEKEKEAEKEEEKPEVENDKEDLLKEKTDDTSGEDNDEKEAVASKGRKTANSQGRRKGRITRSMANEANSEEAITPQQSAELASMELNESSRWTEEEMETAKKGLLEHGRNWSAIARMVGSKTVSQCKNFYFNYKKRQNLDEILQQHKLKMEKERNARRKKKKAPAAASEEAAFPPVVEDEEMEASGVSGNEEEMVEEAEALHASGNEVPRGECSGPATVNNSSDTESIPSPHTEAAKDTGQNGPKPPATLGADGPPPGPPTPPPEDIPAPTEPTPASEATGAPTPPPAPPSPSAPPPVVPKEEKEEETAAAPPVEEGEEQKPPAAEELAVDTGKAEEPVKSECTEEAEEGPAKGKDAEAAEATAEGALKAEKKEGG

IC50 [1] [µM] | IC50 [2] [µM] | IC50 [3] [µM] | IC50 [4] [µM] | SMILES
0.298 | 4.35 | – | – | CCC(=O)CCCOC[C@H](NC(=O)C1CN(C)C1)c1ncc(-c2cc3ccccc3nc2OC)[nH]1 [Compound 3, (R)—N-(1-(5-(2-methoxyquinolin-3-yl)-1H-imidazol-2-yl)-2-((4-oxohexyl)oxy)ethyl)-1-methylazetidine-3-carboxamide]
– | – | 23.3 | > 45 | CCC(=O)CCCOC[C@H](NC(=O)[C@H]1CC12CCN(C)CC2)c1ncc(-c2cc3ccccc3nc2OC)[nH]1 [Compound 4, (S)—N—((R)-1-(5-(2-methoxyquinolin-3-yl)-1H-imidazol-2-yl)-2-((4-oxohexyl)oxy)ethyl)-6-methyl-6-azaspiro[2.5]octane-1-carboxamide]
